Where a name gives a salt, the structure may show the parent alone.

The text below walks through data of US4425355A, “Substituted acyl derivatives of chair form of octahydro-1H-indole-2-carboxylic acids” (Warner-Lambert Company, priority 1981, dated 1984).

This assay concerns the target T1, Angiotensin converting enzyme (ACE) (Cavia porcellus, UniProt H0UWL7).
T1 construct: ACE from guinea pig serum and the test compounds are preincubated for 10 minutes; from tissue; host or cells: guinea pig serum
T1 sequence (H0UWL7 33-1302): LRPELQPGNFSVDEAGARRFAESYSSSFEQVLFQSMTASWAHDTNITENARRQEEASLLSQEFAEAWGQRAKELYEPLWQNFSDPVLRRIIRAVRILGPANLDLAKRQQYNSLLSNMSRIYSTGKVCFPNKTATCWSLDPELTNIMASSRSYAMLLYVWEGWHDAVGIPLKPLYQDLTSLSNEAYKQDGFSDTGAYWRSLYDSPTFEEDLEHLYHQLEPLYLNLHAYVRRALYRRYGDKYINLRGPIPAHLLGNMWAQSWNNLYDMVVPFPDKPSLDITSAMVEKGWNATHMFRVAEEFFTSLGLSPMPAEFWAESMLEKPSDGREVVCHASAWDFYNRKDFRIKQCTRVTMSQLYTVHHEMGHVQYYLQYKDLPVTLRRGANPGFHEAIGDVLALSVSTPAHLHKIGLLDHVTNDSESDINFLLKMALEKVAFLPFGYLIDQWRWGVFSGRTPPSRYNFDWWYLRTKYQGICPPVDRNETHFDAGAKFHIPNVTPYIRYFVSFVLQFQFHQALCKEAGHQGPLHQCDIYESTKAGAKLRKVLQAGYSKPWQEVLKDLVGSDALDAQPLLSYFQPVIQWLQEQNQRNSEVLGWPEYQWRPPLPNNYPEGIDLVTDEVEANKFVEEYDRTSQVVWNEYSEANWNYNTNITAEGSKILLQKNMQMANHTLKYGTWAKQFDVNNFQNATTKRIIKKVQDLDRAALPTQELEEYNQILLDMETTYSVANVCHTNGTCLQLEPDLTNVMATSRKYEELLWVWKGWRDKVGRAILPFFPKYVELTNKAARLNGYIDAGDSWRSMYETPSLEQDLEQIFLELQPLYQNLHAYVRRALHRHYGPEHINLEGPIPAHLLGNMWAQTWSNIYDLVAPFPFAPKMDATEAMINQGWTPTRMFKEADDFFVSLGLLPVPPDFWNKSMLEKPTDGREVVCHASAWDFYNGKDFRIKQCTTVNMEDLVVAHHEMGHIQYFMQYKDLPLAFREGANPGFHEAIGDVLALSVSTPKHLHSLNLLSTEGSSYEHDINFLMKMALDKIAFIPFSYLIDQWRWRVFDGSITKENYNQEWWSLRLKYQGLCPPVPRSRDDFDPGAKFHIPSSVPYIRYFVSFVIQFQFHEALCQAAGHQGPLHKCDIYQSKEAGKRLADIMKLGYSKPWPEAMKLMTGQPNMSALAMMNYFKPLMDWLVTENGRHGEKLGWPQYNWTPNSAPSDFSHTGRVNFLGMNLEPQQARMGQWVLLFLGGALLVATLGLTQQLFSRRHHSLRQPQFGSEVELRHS
Kind of assay: In vitro ACE Assay: angiotensin converting enzyme inhibitory activity (guinea pig serum ACE, 3H-hippuryl-glycyl-glycine substrate). In kind it is biochemical. The note with it: 10 min preincubation, 60 minute incubation at 37° C., read-out: IC50 (Activity of Compounds of Formula V). As for the experimental part:
In vitro ACE Assay: Angiotensin converting enzyme (ACE) inhibitory activity is determined by assaying guinea pig serum ACE in the presence and absence of the test compound. ACE from guinea pig serum and the test compounds are preincubated for 10 minutes before the addition of the labelled substrate ^3 H-hippuryl-glycyl-glycine. […] ACE cleaves the hippuryl-glycyl bond to form the dipeptide glycyl-glycine and ^3 H-hippuric acid. The ^3 H-hippuric acid is then extracted with ethyl acetate and the ACE inhibition of a given sample calculated on the basis of the ^3 H-hippuric acid generated.

One may read the IC50 as the point on the concentration scale where inhibition reaches its midpoint. In the case of `CCOC(=O)[C@@H]1C[C@@H]2CCCC[C@@H]2N1C(=O)C(C)CSC(C)=O` (relative stereo) [V: R=C2 H5, R1=CH3, R2=CH3 CO, --, Ethyl (2α,3aβ,7aβ)-Octahydro-1-[3-(acetylthio)-2-methylpropanoyl]-1H-indole-2-carboxylate], the IC50 came to 6700 nM.
The value for `CC(CS)C(=O)N1[C@H](C(=O)O)C[C@@H]2CCCC[C@@H]21` (relative stereo) [V: R=H, R1=CH3, R2=H, --, (2α,3aβ,7aβ)-Octahydro-1-(3-mercapto-2-methylpropanoyl)-1H-indole-2-carboxylic acid] was 16 nM; that for `CC(=O)SCCC(=O)N1[C@H](C(=O)O)C[C@@H]2CCCC[C@@H]21` (relative stereo) [V: R=H, R1=H, R2=CH3 CO, l, (1)-(2α,3aβ,7aβ)-Octahydro-1-[3-(acetylthio)-propanoyl]-1H-indole-2-carboxylic Acid] was 480 nM.
The value for `O=C(O)[C@@H]1C[C@@H]2CCCC[C@@H]2N1C(=O)CCS` (relative stereo) [V: R=H, R1=H, R2=H, l, (1)-(2α,3aβ,7aβ)-Octahydro-1-(3-mercaptopropanoyl)-1H-indole-2-carboxylic Acid] was 6.4 nM; that for `CC(CSC(=O)C(C)(C)C)C(=O)N1[C@H](C(=O)O)C[C@@H]2CCCC[C@@H]21` (single isomer, unassigned) [V: R=H, R1=CH3, R2=(CH3)3 CCO, dl, A, (2α,3aβ,7aβ)-Octahydro-1-[3-(2,2-dimethylpropanoylthio)-2-methylpropanoyl]-1H-indole-2-carboxylic Acid] was 170 nM; that for `CCC(=O)SCC(C)C(=O)N1[C@H](C(=O)O)C[C@@H]2CCCC[C@@H]21` (single isomer, unassigned; diastereomer a) [V: R=H, R1=CH3, R2=CH3 CH2 CO, dl, A, (2α,3aβ,7aβ)-Octahydro-1-[3-(propanoylthio)-2-methylpropanoyl]-1H-indole-2-carboxylic Acid, (Diastereomer A)] was 52 nM.
Consider `CC(=O)SCC(C)C(=O)N1[C@H](C(=O)O)C[C@@H]2CCCC[C@@H]21` (single isomer, unassigned; diastereomer a) [V: R=H, R1=CH3, R2=CH3 CO, A, (2α,3aβ,7aβ)-Octahydro-1-[3-(acetylthio)-2-methyl-propanoyl]-1H-indole-2-carboxylic Acid, Diastereomer A], for which the IC50 came to 160 nM.
The figure for `CC(CS)C(=O)N1[C@H](C(=O)O)C[C@@H]2CCCC[C@@H]21` (single isomer, unassigned; diastereomer a) [V: R=H, R1=CH3, R2=H, dl, A, (2α,3aβ,7aβ)-Octahydro-1-(3-mercapto-2-methylpropanoyl)-1H-indole-2-carboxylic Acid, Diastereomer A] is 7 nM.
The value for `CC(CSC(=O)c1ccccc1)C(=O)N1[C@H](C(=O)O)C[C@@H]2CCCC[C@@H]21` (single isomer, unassigned; diastereomer a) [V: R=H, R1=CH3, R2=PhCO, dl, A, (2α,3aβ,7aβ)-Octahydro-1-[3-(benzoylthio)-2-methylpropaoyl]-1H-indole-2-carboxylic Acid (Diastereomer A) t-Butylamine Salt] was 960 nM; that for `CC(=O)SCC(C)C(=O)N1[C@H](C(=O)O)C[C@@H]2CCCC[C@@H]21` (single isomer, unassigned; diastereomer b) [V: R=H, R1=CH3, R2=CH3 CO, dl, B, (2α,3aβ,7aβ)-Octahydro-1-[3-(acetylthio)-2-methylpropanoyl]-1H-indole-2-carboxylic Acid, Diastereomer B.] was 1100 nM.
